Several values for one entry are separate records, joined by “and”; a condition that tells them apart may be missing. Equal values may be shown once. Numbers after ± are expanded uncertainties.
Test: molar heat capacity at constant volume
Conditions: Fluid (supercritical or subcritical phases), Vacuum adiabatic calorimetry

FC(F)C(F)(F)F [pentafluoroethane]
Conditions	molar heat capacity at constant volume
365 K, Mass density=773.3 kg/m3	119.04 ± 2.4 J/K/mol
365 K, Mass density=881.8 kg/m3	110.32 ± 2.2 J/K/mol
365 K, Mass density=973.8 kg/m3	106.41 ± 2.1 J/K/mol and 108.3 ± 2.2 J/K/mol
365 K, Mass density=1075 kg/m3	105.75 ± 2.1 J/K/mol
366 K, Mass density=403.6 kg/m3	108.16 ± 2.2 J/K/mol
366 K, Mass density=503 kg/m3	114.45 ± 2.3 J/K/mol
366 K, Mass density=585.5 kg/m3	119.7 ± 2.4 J/K/mol and 112.44 ± 2.3 J/K/mol
366 K, Mass density=688.1 kg/m3	116.48 ± 2.3 J/K/mol
366 K, Mass density=881.7 kg/m3	110.43 ± 2.2 J/K/mol
366 K, Mass density=973.7 kg/m3	107.62 ± 2.2 J/K/mol and 109.23 ± 2.2 J/K/mol
366 K, Mass density=1074.9 kg/m3	106.22 ± 2.1 J/K/mol
367 K, Mass density=403.6 kg/m3	110.86 ± 2.2 J/K/mol
367 K, Mass density=502.9 kg/m3	113.31 ± 2.3 J/K/mol
367 K, Mass density=585.4 kg/m3	117.62 ± 2.4 J/K/mol and 110.28 ± 2.2 J/K/mol
367 K, Mass density=688.1 kg/m3	115.05 ± 2.3 J/K/mol
367 K, Mass density=881.7 kg/m3	109.7 ± 2.2 J/K/mol
367 K, Mass density=973.6 kg/m3	107.58 ± 2.2 J/K/mol and 108.96 ± 2.2 J/K/mol
367 K, Mass density=1074.8 kg/m3	106.41 ± 2.1 J/K/mol
368 K, Mass density=403.5 kg/m3	111.09 ± 2.2 J/K/mol
368 K, Mass density=502.9 kg/m3	112.14 ± 2.3 J/K/mol
368 K, Mass density=585.4 kg/m3	115.53 ± 2.3 J/K/mol and 108.9 ± 2.2 J/K/mol
368 K, Mass density=688 kg/m3	113.01 ± 2.3 J/K/mol
368 K, Mass density=773.1 kg/m3	111.16 ± 2.2 J/K/mol
368 K, Mass density=881.6 kg/m3	109.62 ± 2.2 J/K/mol
368 K, Mass density=973.6 kg/m3	106.75 ± 2.1 J/K/mol and 108.55 ± 2.2 J/K/mol
368 K, Mass density=1074.7 kg/m3	106.17 ± 2.1 J/K/mol
369 K, Mass density=403.5 kg/m3	111.67 ± 2.2 J/K/mol
369 K, Mass density=502.9 kg/m3	113.46 ± 2.3 J/K/mol
369 K, Mass density=585.4 kg/m3	118.03 ± 2.4 J/K/mol and 110.31 ± 2.2 J/K/mol
369 K, Mass density=688 kg/m3	114.37 ± 2.3 J/K/mol
369 K, Mass density=773.1 kg/m3	112.65 ± 2.3 J/K/mol
369 K, Mass density=881.6 kg/m3	110.94 ± 2.2 J/K/mol
369 K, Mass density=973.5 kg/m3	108.28 ± 2.2 J/K/mol and 109.62 ± 2.2 J/K/mol
369 K, Mass density=1074.6 kg/m3	106.18 ± 2.1 J/K/mol
370 K, Mass density=403.5 kg/m3	111.22 ± 2.2 J/K/mol
370 K, Mass density=502.9 kg/m3	114.85 ± 2.3 J/K/mol
370 K, Mass density=585.4 kg/m3	118.04 ± 2.4 J/K/mol and 108.82 ± 2.2 J/K/mol
370 K, Mass density=687.9 kg/m3	116.1 ± 2.3 J/K/mol
370 K, Mass density=773 kg/m3	113 ± 2.3 J/K/mol
370 K, Mass density=881.5 kg/m3	111.13 ± 2.2 J/K/mol
370 K, Mass density=973.4 kg/m3	107.54 ± 2.2 J/K/mol and 109.82 ± 2.2 J/K/mol
370 K, Mass density=1074.5 kg/m3	106.55 ± 2.1 J/K/mol
371 K, Mass density=403.5 kg/m3	112.09 ± 2.3 J/K/mol
371 K, Mass density=502.9 kg/m3	116.62 ± 2.3 J/K/mol
371 K, Mass density=585.3 kg/m3	116.07 ± 2.3 J/K/mol and 110.26 ± 2.2 J/K/mol
371 K, Mass density=687.9 kg/m3	113.67 ± 2.3 J/K/mol
371 K, Mass density=773 kg/m3	111.62 ± 2.2 J/K/mol
371 K, Mass density=881.4 kg/m3	110.7 ± 2.2 J/K/mol
371 K, Mass density=973.3 kg/m3	107.44 ± 2.2 J/K/mol and 109.17 ± 2.2 J/K/mol
371 K, Mass density=1074.4 kg/m3	107.07 ± 2.1 J/K/mol
372 K, Mass density=403.5 kg/m3	114.04 ± 2.3 J/K/mol
372 K, Mass density=502.8 kg/m3	115.24 ± 2.3 J/K/mol
372 K, Mass density=585.3 kg/m3	115.84 ± 2.3 J/K/mol and 110.71 ± 2.2 J/K/mol
372 K, Mass density=687.9 kg/m3	112.84 ± 2.3 J/K/mol
372 K, Mass density=772.9 kg/m3	111.54 ± 2.2 J/K/mol
372 K, Mass density=881.4 kg/m3	110.3 ± 2.2 J/K/mol
372 K, Mass density=973.3 kg/m3	107.17 ± 2.2 J/K/mol and 108.04 ± 2.2 J/K/mol
372 K, Mass density=1074.3 kg/m3	106.22 ± 2.1 J/K/mol
373 K, Mass density=403.5 kg/m3	113.17 ± 2.3 J/K/mol
373 K, Mass density=502.8 kg/m3	117.01 ± 2.4 J/K/mol
373 K, Mass density=585.3 kg/m3	117.2 ± 2.4 J/K/mol and 110.91 ± 2.2 J/K/mol
373 K, Mass density=687.8 kg/m3	113.56 ± 2.3 J/K/mol
373 K, Mass density=772.9 kg/m3	111.8 ± 2.2 J/K/mol
373 K, Mass density=881.3 kg/m3	111.19 ± 2.2 J/K/mol
373 K, Mass density=973.2 kg/m3	107.61 ± 2.2 J/K/mol and 108.78 ± 2.2 J/K/mol
374 K, Mass density=403.4 kg/m3	114.45 ± 2.3 J/K/mol
374 K, Mass density=502.8 kg/m3	119.13 ± 2.4 J/K/mol
374 K, Mass density=585.3 kg/m3	117.5 ± 2.4 J/K/mol and 112.68 ± 2.3 J/K/mol
374 K, Mass density=687.8 kg/m3	114.16 ± 2.3 J/K/mol
374 K, Mass density=772.9 kg/m3	112.71 ± 2.3 J/K/mol
374 K, Mass density=881.2 kg/m3	112 ± 2.3 J/K/mol
374 K, Mass density=973.1 kg/m3	108.98 ± 2.2 J/K/mol and 110.07 ± 2.2 J/K/mol
375 K, Mass density=403.4 kg/m3	112.95 ± 2.3 J/K/mol
375 K, Mass density=502.8 kg/m3	117.92 ± 2.4 J/K/mol
375 K, Mass density=585.2 kg/m3	116.64 ± 2.3 J/K/mol and 110.73 ± 2.2 J/K/mol
375 K, Mass density=687.8 kg/m3	113.4 ± 2.3 J/K/mol
375 K, Mass density=772.8 kg/m3	112.33 ± 2.3 J/K/mol
375 K, Mass density=881.2 kg/m3	111 ± 2.2 J/K/mol
375 K, Mass density=973 kg/m3	108.25 ± 2.2 J/K/mol and 109.81 ± 2.2 J/K/mol
376 K, Mass density=403.4 kg/m3	116.08 ± 2.3 J/K/mol
376 K, Mass density=502.8 kg/m3	116.37 ± 2.3 J/K/mol
376 K, Mass density=585.2 kg/m3	116.55 ± 2.3 J/K/mol and 110.52 ± 2.2 J/K/mol
376 K, Mass density=687.7 kg/m3	113.56 ± 2.3 J/K/mol
376 K, Mass density=772.8 kg/m3	112.56 ± 2.3 J/K/mol
376 K, Mass density=881.1 kg/m3	110.12 ± 2.2 J/K/mol
376 K, Mass density=973 kg/m3	107.55 ± 2.2 J/K/mol and 109 ± 2.2 J/K/mol
377 K, Mass density=403.4 kg/m3	115.48 ± 2.3 J/K/mol
377 K, Mass density=502.7 kg/m3	117.28 ± 2.4 J/K/mol
377 K, Mass density=585.2 kg/m3	116.34 ± 2.3 J/K/mol and 111.62 ± 2.2 J/K/mol
377 K, Mass density=687.7 kg/m3	114.45 ± 2.3 J/K/mol
377 K, Mass density=772.7 kg/m3	113.06 ± 2.3 J/K/mol
377 K, Mass density=881.1 kg/m3	110.86 ± 2.2 J/K/mol
377 K, Mass density=972.9 kg/m3	108.42 ± 2.2 J/K/mol and 108.94 ± 2.2 J/K/mol
378 K, Mass density=403.4 kg/m3	113.28 ± 2.3 J/K/mol
378 K, Mass density=502.7 kg/m3	118.29 ± 2.4 J/K/mol
378 K, Mass density=585.1 kg/m3	116.82 ± 2.4 J/K/mol and 112.87 ± 2.3 J/K/mol
378 K, Mass density=687.6 kg/m3	114.84 ± 2.3 J/K/mol
378 K, Mass density=772.7 kg/m3	112.51 ± 2.3 J/K/mol
378 K, Mass density=881 kg/m3	111.43 ± 2.2 J/K/mol
378 K, Mass density=972.8 kg/m3	108.14 ± 2.2 J/K/mol and 110.22 ± 2.2 J/K/mol
379 K, Mass density=403.3 kg/m3	117.97 ± 2.4 J/K/mol
379 K, Mass density=502.7 kg/m3	115.21 ± 2.3 J/K/mol
379 K, Mass density=585.1 kg/m3	116.17 ± 2.3 J/K/mol and 112.3 ± 2.3 J/K/mol
379 K, Mass density=687.6 kg/m3	115.82 ± 2.3 J/K/mol
379 K, Mass density=772.6 kg/m3	113.55 ± 2.3 J/K/mol
379 K, Mass density=880.9 kg/m3	111.09 ± 2.2 J/K/mol
379 K, Mass density=972.7 kg/m3	107.65 ± 2.2 J/K/mol and 109.27 ± 2.2 J/K/mol
380 K, Mass density=403.3 kg/m3	116.02 ± 2.3 J/K/mol
380 K, Mass density=502.7 kg/m3	112.64 ± 2.3 J/K/mol
380 K, Mass density=585.1 kg/m3	111.27 ± 2.2 J/K/mol
380 K, Mass density=687.6 kg/m3	113.06 ± 2.3 J/K/mol
380 K, Mass density=772.6 kg/m3	113.31 ± 2.3 J/K/mol
380 K, Mass density=880.9 kg/m3	111.18 ± 2.2 J/K/mol
380 K, Mass density=972.6 kg/m3	107.71 ± 2.2 J/K/mol and 108.81 ± 2.2 J/K/mol
381 K, Mass density=403.3 kg/m3	114.7 ± 2.3 J/K/mol
381 K, Mass density=502.6 kg/m3	115.06 ± 2.3 J/K/mol
381 K, Mass density=585 kg/m3	114.39 ± 2.3 J/K/mol
381 K, Mass density=687.5 kg/m3	113.14 ± 2.3 J/K/mol
381 K, Mass density=772.5 kg/m3	113.07 ± 2.3 J/K/mol
381 K, Mass density=880.8 kg/m3	112.11 ± 2.3 J/K/mol
381 K, Mass density=972.6 kg/m3	113.29 ± 2.3 J/K/mol and 109.7 ± 2.2 J/K/mol
382 K, Mass density=403.3 kg/m3	116.14 ± 2.3 J/K/mol
382 K, Mass density=502.6 kg/m3	117.31 ± 2.4 J/K/mol
